Measurements from paper PMC7377239, “Cardiovascular Effects of Polychlorinated Biphenyls and Their Major Metabolites” (Environmental Health Perspectives, 2020).
Counter-ions that a name gives are not always drawn.

System: iPSC-CMs, iPSC-ECs and HUVECs phenotypes
Test: ToxPi 2.0 integration of POD values and physicochemical descriptors
Parameters: species or system human
Conditions: ToxPi-scaled (0-1) score; for huvec.cyto.24hr / huvec.mito.24hr / huvec.mitoint.24hr / huvec.nma.24hr / huvec.tc.24hr / huvec.mtl.18hr / huvec.tlps.18hr / huvec.tta.18hr / huvec.ttl.18hr: HUVECs; for huvec.mtl.18hr / huvec.tlps.18hr / huvec.tta.18hr / huvec.ttl.18hr / endo.mtl.18hr / endo.tlps.18hr / endo.tta.18hr / endo.ttl.18hr: tube formation; for cm.amp.avg.90min / cm.amp.cv.90min / cm.bpm.90min / cm.cam.90min / cm.decay.rise.90min / cm.mii.90min / cm.mito.90min / cm.spacing.cv.90min / cm.tc.90min / cm.amp.avg.24hrs / cm.amp.cv.24hrs / cm.bpm.24hrs / cm.cam.24hrs / cm.decay.rise.24hrs / cm.mii.24hrs / cm.mito.24hrs / cm.spacing.cv.24hrs / cm.tc.24hrs: iPSC cardiomyocytes; for endo.cyto.24hr / endo.mito.24hr / endo.mitoint.24hr / endo.nma.24hr / endo.tc.24hr / endo.mtl.18hr / endo.tlps.18hr / endo.tta.18hr / endo.ttl.18hr: iPSC endothelial cells
Description: Phenotypic responses were quantitatively assessed using concentration–response modeling as detailed elsewhere ([Sirenko et al. 2017]). Briefly, phenotypic readouts were normalized to vehicle controls and fit to a four-parameter logistic model in R studio software (version 3.1.1; R Development Core Team). Following EPA guidance on dose–response modeling, a cutoff of one standard deviation across means of vehicle control (i.e., 0.5% vol/vol DMSO in cell culture media) wells was applied to determine the point-of-departure (POD) values ([U.S. EPA 2012]). In the absence of a concentration–response, the highest tested concentration (i.e., 100μM ) was assigned as “no observable adverse effect level.” The concentration–response assessment R script, as well as templates for vehicle and concentration–response data, are available as a supplement to Sirenko et al. ([2017]). The ability of physicochemical properties to predict differences in PODs were evaluated by multiregression and mixed-effects modeling using R.
POD values were then integrated using ToxPi 2.0 ([Marvel et al. 2018]) software. In ToxPi, each slice is representative of cell type– and time-point–specific phenotypes. The area of each slice is proportional to the relative value (e.g., bioactivity or physicochemical descriptor value) of the chemical within the data set. ToxPi scores were used to rank PCBs and their metabolites according to their overall bioactivity and to determine variability in total observable biological responses and chemical characteristics for each major metabolite class and chlorination status (mono-, hexa-chlorinated). Additional visualizations such as dumbbell and principal components analysis plots were generated in R Studio (version 1.1.456; R version 3.5.1; R Development Core Team) using the ggplot2 package.

Row | Structure (SMILES) | huvec.cyto.24hr | huvec.mito.24hr | huvec.mitoint.24hr | huvec.nma.24hr | huvec.tc.24hr | huvec.mtl.18hr | huvec.tlps.18hr | huvec.tta.18hr | huvec.ttl.18hr | cm.amp.avg.90min | cm.amp.cv.90min | cm.bpm.90min | cm.cam.90min | cm.decay.rise.90min | cm.mii.90min | cm.mito.90min | cm.spacing.cv.90min | cm.tc.90min | cm.amp.avg.24hrs | cm.amp.cv.24hrs | other results
1 | Oc1ccc(-c2ccc(Cl)cc2)cc1 [4'-OH-PCB 3] | 0.275 | 0.3852 | 0.4333 | 0.3408 | 0.275 | 0.9876 | 1 | 0.5814 | 0.4466 | 0.5917 | 0.3333 | 0.8225 | 0.8629 | 0.5699 | 0.6837 | 0.8821 | 0.08302 | 0.896 | 1 | 0.8417 | cm.bpm.24hrs: 0.3262; cm.cam.24hrs: 0.1519; cm.decay.rise.24hrs: 0.2382; cm.mii.24hrs: 0.4953; cm.mito.24hrs: 0.213; cm.spacing.cv.24hrs: 0.1936; cm.tc.24hrs: 0.2201; endo.cyto.24hr: 0.1551; endo.mito.24hr: 0.1551; endo.mitoint.24hr: 0; endo.nma.24hr: 0; endo.tc.24hr: 0.1152; endo.mtl.18hr: 0.4612; endo.tlps.18hr: 1; endo.tta.18hr: 0.4055; endo.ttl.18hr: 0.4146
2 | COc1ccc(-c2ccc(Cl)cc2)cc1 [4'-OMe-PCB 3, 4′-methoxy-4-chlorobiphenyl] | 0.2539 | 0.3347 | 0.2259 | 0.5435 | 0.2539 | 0.5905 | 0.1332 | 0.4823 | 0.3839 | 0.148 | 0.2333 | 0.4231 | 0 | 0 | 0 | 0 | 0.06946 | 0 | 0.1468 | 0 | cm.bpm.24hrs: 0.4274; cm.cam.24hrs: 0.02517; cm.decay.rise.24hrs: 0.569; cm.mii.24hrs: 0; cm.mito.24hrs: 0; cm.spacing.cv.24hrs: 0.5026; cm.tc.24hrs: 0; endo.cyto.24hr: 0; endo.mito.24hr: 0; endo.mitoint.24hr: 0.218; endo.nma.24hr: 0; endo.tc.24hr: 0; endo.mtl.18hr: 0.3533; endo.tlps.18hr: 0.3362; endo.tta.18hr: 0.2327; endo.ttl.18hr: 0.2433
3 | O=S(=O)(O)Oc1ccc(-c2ccc(Cl)cc2)cc1 [4'-PCB 3 sulfate] | 0 | 0 | 0 | 0 | 0 | 0.4903 | 0 | 0.272 | 0 | 0.6628 | 0.2569 | 0.1909 | 0 | 0.4625 | 0 | 0 | 0.1039 | 0 | 0 | 0 | cm.bpm.24hrs: 0; cm.cam.24hrs: 0; cm.decay.rise.24hrs: 0; cm.mii.24hrs: 0.1652; cm.mito.24hrs: 0; cm.spacing.cv.24hrs: 0; cm.tc.24hrs: 0; endo.cyto.24hr: 0; endo.mito.24hr: 0; endo.mitoint.24hr: 0; endo.nma.24hr: 0; endo.tc.24hr: 0; endo.mtl.18hr: 0.3281; endo.tlps.18hr: 0.3444; endo.tta.18hr: 0.1625; endo.ttl.18hr: 0.2037
4 | O=C1C=CC(=O)C(c2ccc(Cl)cc2)=C1 [4-Cl-BQ, 2-(4-Chlorophenyl)benzo-2,5-quinone] | 1 | 0.8466 | 0.9878 | 0.6676 | 1 | 0.9933 | 0.5585 | 1 | 0.8997 | 0.3159 | 0.2492 | 0.1564 | 0.4034 | 0.215 | 0.8851 | 0.387 | 0.3114 | 0 | 0.3257 | 0.3094 | cm.bpm.24hrs: 0.6578; cm.cam.24hrs: 1; cm.decay.rise.24hrs: 0.8647; cm.mii.24hrs: 0.2031; cm.mito.24hrs: 0.702; cm.spacing.cv.24hrs: 0.7459; cm.tc.24hrs: 0; endo.cyto.24hr: 0.5702; endo.mito.24hr: 0.5702; endo.mitoint.24hr: 0.2683; endo.nma.24hr: 0.3599; endo.tc.24hr: 0.6463; endo.mtl.18hr: 0.5822; endo.tlps.18hr: 0.7309; endo.tta.18hr: 0.1339; endo.ttl.18hr: 0.1969
